Columns and labels:
Assay type in all cases: cell-based
MDA-231 cells = assay: flow cytometry apoptosis (annexin V and PI), MDA-231 cells with human CD8 T cells
Excerpt: (§1) FIGS. 5 to 96 are flow cytometry plots testing the disclosed bispecific antibodies. Table 1 summarizes flow cytometry results measuring apoptosis with annexin V and PI in gated populations of MCF-7 and MDA-231 cells treated with human CD8 T cells with bi-specific antibodies plus or minus the photosensitizing compound verteporfin.

[1] = test system: programmed cell death ligand 1 (PDL1); assay: tumor cell PDL1 surface expression
MCF-7 cells = assay: flow cytometry apoptosis (annexin V and PI), MCF-7 cells with human CD8 T cells
Excerpt: as §1

**Q.** verteporfin [Vs] was tested. Which “Control group (%) viable cells” value (MDA-231 cells; CD8 + Vs (1 μM)) did it give?
**A.** (56.3) %

**Q.** And the “Control group (%) viable cells” value (MDA-231 cells; CD8 + Vs (2 μM))?
**A.** (57.4) %

**Q.** What about the “Control group (%) viable cells” value (MDA-231 cells; CD8 + Vs (5 μM)) of the same substance?
**A.** (55.3) %

**Q.** What about the “tumor cell PDL1 surface expression” value [1] of the same substance?
**A.** reduce tumor cell programmed cell death ligand 1 (PDL1) surface expression

**Q.** And the “Control group (%) viable cells” value (MCF-7 cells; CD8 + Vs (1 μM))?
**A.** (19) %

**Q.** And the “Control group (%) viable cells” value (MCF-7 cells; CD8 + Vs (2 μM))?
**A.** (13.3) %

**Q.** What about the “Control group (%) viable cells” value (MCF-7 cells; CD8 + Vs (5 μM)) of the same substance?
**A.** (7.51) %
